Experimental data from US20110245242A1, “Heterocyclically Substituted Anilinopyrimides” (Bayer CropScience AG, priority 2008, published 2011).

Assay: log P by LC-MS, method [b], acid range pH 2.7
Assay type: physicochemical
Conditions: pH 2.7
Description: The log P values were measured in accordance with EEC Directive 79/831 Annex V.A8 by HPLC (High Performance Liquid Chromatography) on reversed-phase columns (C 18) using the methods below:
[b] The LC-MS determination in the acid range was carried out at pH 2.7 using the mobile phases 0.1% aqueous formic acid and acetonitrile (contains 0.1% formic acid)
linear gradient from 10% acetonitrile to 95% acetonitrile.

Row | Compound | log p
1 | COCC(C)Nc1nc(Nc2ccc(N3C(=O)OCC3C)cc2)ncc1Cl (stereo not drawn) [Example 3] | 1.54[b]
2 | COCC(C)Nc1nc(Nc2ccc(N3C(=O)OCC3C)cc2)ncc1Br (stereo not drawn) [Example 4] | 1.61[b]
3 | COCC(C)Nc1nc(Nc2cccc(N3CCCC3=O)c2)ncc1Br (stereo not drawn) [Example 5] | 1.6[b]
4 | COCC(C)Nc1nc(Nc2ccc(N3CCOC3=O)cc2)ncc1Cl (stereo not drawn) [Example 12] | 1.46[b]
5 | O=c1ccccn1-c1cccc(Nc2ncc(Cl)c(NC3CCC3)n2)c1 [Example 16] | 2.17[b]
6 | O=C1OCCN1c1ccc(Nc2ncc(Cl)c(NCC(F)(F)F)n2)cc1 [Example 23] | 1.83[b]
7 | COCC(C)Nc1nc(Nc2cccc(N3CCCC3=O)c2)ncc1C#N (stereo not drawn) [Example 24] | 1.99[b]
8 | CC1(C)CC(=O)N(c2cccc(Nc3ncc(Cl)c(NC4CCC4)n3)c2)C1=O [Example 29] | 2.07[b]
9 | CCC1COC(=O)N1c1cccc(Nc2ncc(Br)c(NC3CCC3)n2)c1 (stereo not drawn) [Example 34] | 2.24[b]
10 | CCC1COC(=O)N1c1cccc(Nc2ncc(Cl)c(NC3CCC3)n2)c1 (stereo not drawn) [Example 35] | 2.09[b]
11 | CC1CCC(=O)N1c1cccc(Nc2ncc(Cl)c(NC3CCC3)n2)c1 (stereo not drawn) [Example 37] | 1.83[b]
12 | O=C1CCCN1c1cccc(Nc2ncc(Cl)c(NC3CCCC3)n2)c1 [Example 42] | 1.92[b]
13 | CC1(C)CN(c2cccc(Nc3ncc(Br)c(NC4CC4)n3)c2)C1=O [Example 52] | 2.18[b]
14 | CC1(C)CN(c2cccc(Nc3ncc(Cl)c(NC4CC4)n3)c2)C1=O [Example 53] | 2.07[b]
15 | CC(C)Nc1nc(Nc2ccc(N3CCOC3=O)cc2)ncc1Cl [Example 64] | 1.49[b]
16 | CC1CC(=O)N(c2cccc(Nc3ncc(Br)c(NC4CC4)n3)c2)C1=O (stereo not drawn) [Example 66] | 1.78[b]
17 | COCC(C)Nc1nc(Nc2cccc(N3CCOC3=O)c2)ncc1Cl (stereo not drawn) [Example 67] | 1.54[b]
18 | COCC(C)Nc1nc(Nc2cccc(N3C(=O)CC(C)C3=O)c2)ncc1Cl (stereo not drawn) [Example 68] | 1.59[b]
19 | COCC(C)Nc1nc(Nc2cccc(N3CCOC3=O)c2)ncc1Br (stereo not drawn) [Example 69] | 1.61[b]
20 | COCC(C)Nc1nc(Nc2cccc(N3C(=O)CC(C)C3=O)c2)ncc1Br (stereo not drawn) [Example 70] | 1.68[b]
21 | CC1CC(=O)N(c2cccc(Nc3ncc(Cl)c(NCC4CC4)n3)c2)C1=O (stereo not drawn) [Example 71] | 1.68[b]

Row | Compound | log p
22 | O=C1OCCN1c1cccc(Nc2ncc(Br)c(NC3CCC3)n2)c1 [Example 72] | 1.8[b]
23 | CC1CC(=O)N(c2cccc(Nc3ncc(Br)c(NCC4CC4)n3)c2)C1=O (stereo not drawn) [Example 74] | 1.78[b]
24 | CC(C)[C@@H]1COC(=O)N1c1cccc(Nc2ncc(Cl)c(NC3CC3)n2)c1 [Example 75] | 2.39[b]
25 | CC1CC(C)N(c2cccc(Nc3ncc(Cl)c(NC4CCC4)n3)c2)C1=O (stereo not drawn) [Example 80] | 2.2[b]
26 | CN(c1cccc(N2CCCC2=O)c1)c1ncc(Cl)c(NC2CCC2)n1 [Example 83] | 1.63[b]
27 | CC1CC(C)N(c2cccc(Nc3ncc(Br)c(NC4CCC4)n3)c2)C1=O (stereo not drawn) [Example 85] | 2.3[b]
28 | O=C1OCC(c2ccccc2)N1c1cccc(Nc2ncc(Cl)c(NC3CC3)n2)c1 (stereo not drawn) [Example 88] | 2.27[b]
29 | O=C1OCC(c2ccccc2)N1c1cccc(Nc2ncc(Cl)c(NC3CCC3)n2)c1 (stereo not drawn) [Example 89] | 2.65[b]
30 | O=C1OCC(c2ccccc2)N1c1cccc(Nc2ncc(Br)c(NC3CCC3)n2)c1 (stereo not drawn) [Example 90] | 2.8[b]
31 | O=C1OCC(c2ccccc2)N1c1cccc(Nc2ncc(Br)c(NC3CC3)n2)c1 (stereo not drawn) [Example 91] | 2.3[b]
32 | C[C@H]1COC(=O)N1c1cccc(Nc2ncc(Cl)c(NC3CCC3)n2)c1 [Example 93] | 1.82[b]
33 | C[C@H]1COC(=O)N1c1cccc(Nc2ncc(Br)c(NC3CC3)n2)c1 [Example 95] | 1.65[b]
34 | CC1CC(=O)N(c2cccc(Nc3ncc(Cl)c(NC4CC4)n3)c2)C1 (stereo not drawn) [Example 96] | 1.75[b]
35 | CC1CC(=O)N(c2cccc(Nc3ncc(Cl)c(NC4CCC4)n3)c2)C1 (stereo not drawn) [Example 97] | 2.02[b]
36 | CC1CC(=O)N(c2cccc(Nc3ncc(Br)c(NC4CCC4)n3)c2)C1 (stereo not drawn) [Example 98] | 2.16[b]
37 | CC(C)[C@H]1COC(=O)N1c1cccc(Nc2ncc(Cl)c(NC3CCC3)n2)c1 [Example 100] | 2.38[b]
38 | CC(C)[C@@H]1COC(=O)N1c1cccc(Nc2ncc(Cl)c(NC3CCC3)n2)c1 [Example 101] | 2.38[b]
39 | C[C@@H]1COC(=O)N1c1cccc(Nc2ncc(Br)c(NC3CC3)n2)c1 [Example 104] | 2.03[b]
40 | Cc1ccc(Nc2ncc(Cl)c(NC3CCC3)n2)cc1N1CCOC1=O [Example 105] | 1.6[b]
41 | CC(C)[C@H]1COC(=O)N1c1cccc(Nc2ncc(Cl)c(NCC3CC3)n2)c1 [Example 109] | 2.17[b]
42 | CC(C)Nc1nc(Nc2cccc(N3C(=O)OC[C@@H]3C(C)C)c2)ncc1Cl [Example 110] | 2.1[b]

Row | Compound | log p
43 | CC(C)[C@H]1COC(=O)N1c1cccc(Nc2ncc(Cl)c(NCC(F)(F)F)n2)c1 [Example 111] | 2.81[b]
44 | CC(C)[C@H]1COC(=O)N1c1cccc(Nc2ncc(Cl)c(NCC(F)F)n2)c1 [Example 112] | 2.39[b]
45 | CC1CCN(c2cccc(Nc3ncc(Cl)c(NC4CCC4)n3)c2)C1=O (stereo not drawn) [Example 113] | 2.01[b]
46 | CC(C)Nc1nc(Nc2cccc(N3CCCCC3=O)c2)ncc1Cl [Example 114] | 1.46[b]
47 | CC1COC(=O)N1c1cccc(Nc2ncc(Cl)c(NCC3CC3)n2)c1 (stereo not drawn) [Example 116] | 1.64[b]
48 | COCC(C)Nc1nc(Nc2cccc(N3C(=O)OC[C@@H]3C(C)C)c2)ncc1Cl (stereo partly drawn) [Example 117] | 2.1[b]
49 | CC(C)C1COC(=O)N1c1cccc(Nc2ncc(Br)c(NCC3CC3)n2)c1 (stereo not drawn) [Example 128] | 2.28[b]
50 | CC(C)Nc1nc(Nc2cccc(N3C(=O)OCC3C(C)C)c2)ncc1Br (stereo not drawn) [Example 129] | 2.24[b]
51 | CC(C)C1COC(=O)N1c1cccc(Nc2ncc(Br)c(NCC(F)F)n2)c1 (stereo not drawn) [Example 130] | 2.5[b]
52 | CC1(C)CC(=O)N(c2cccc(Nc3ncc(Br)c(NCC4CC4)n3)c2)C1=O [Example 132] | 2.02[b]
53 | CC1CCC(=O)N1c1cccc(Nc2ncc(Br)c(NCC3CC3)n2)c1 (stereo not drawn) [Example 133] | 1.77[b]
54 | CC(C)Nc1nc(Nc2cccc(N3CCCCC3=O)c2)ncc1Br [Example 134] | 1.57[b]
55 | O=C1CCCCN1c1cccc(Nc2ncc(Br)c(NCC(F)F)n2)c1 [Example 135] | 1.75[b]
56 | CC(C)Nc1nc(Nc2ccc(N3C(=O)OCC3C)cc2)ncc1Cl (stereo not drawn) [Example 142] | 1.61[b]
57 | CC(C)Nc1nc(Nc2cccc(N3CCOCC3=O)c2)ncc1Cl [Example 143] | 1.41[b]
58 | CC(C)Nc1nc(Nc2cccc(N3C(=O)CCC3C)c2)ncc1Cl (stereo not drawn) [Example 144] | 1.66[b]
59 | CC(C)Nc1nc(Nc2cccc(N3C(=O)CC(C)C3=O)c2)ncc1Cl (stereo not drawn) [Example 145] | 1.59[b]
60 | CC(C)Nc1nc(Nc2cccc(N3C(=O)OCC3C)c2)ncc1Br (stereo not drawn) [Example 147] | 1.73[b]
61 | CC(C)Nc1nc(Nc2cccc(N3C(=O)CC(C)(C)C3=O)c2)ncc1Br [Example 148] | 1.93[b]
62 | CC(C)Nc1nc(Nc2cccc(N3C(=O)C(C)CC3C)c2)ncc1Br (stereo not drawn) [Example 149] | 1.98[b]
63 | CC(C)Nc1nc(Nc2ccc(N3C(=O)OCC3C)cc2)ncc1Br (stereo not drawn) [Example 150] | 1.68[b]

Row | Compound | log p
64 | CC(C)Nc1nc(Nc2cccc(N3CCOCC3=O)c2)ncc1Br [Example 151] | 1.47[b]
65 | CC(C)Nc1nc(Nc2cccc(N3C(=O)CCC3C)c2)ncc1Br (stereo not drawn) [Example 152] | 1.73[b]
66 | CC(C)Nc1nc(Nc2cccc(N3C(=O)CC(C)C3=O)c2)ncc1Br (stereo not drawn) [Example 153] | 1.68[b]
67 | O=C1OCCN1c1cccc(Nc2ncc(Cl)c(NCC(F)F)n2)c1 [Example 154] | 1.63[b]
68 | CC1COC(=O)N1c1cccc(Nc2ncc(Cl)c(NCC(F)F)n2)c1 (stereo not drawn) [Example 155] | 1.81[b]
69 | CC1(C)CC(=O)N(c2cccc(Nc3ncc(Cl)c(NCC(F)F)n3)c2)C1=O [Example 156] | 2.01[b]
70 | CC1CC(C)N(c2cccc(Nc3ncc(Cl)c(NCC(F)F)n3)c2)C1=O (stereo not drawn) [Example 157] | 2.11[b]
71 | CC1COC(=O)N1c1ccc(Nc2ncc(Cl)c(NCC(F)F)n2)cc1 (stereo not drawn) [Example 158] | 1.68[b]
72 | O=C1COCCN1c1cccc(Nc2ncc(Cl)c(NCC(F)F)n2)c1 [Example 159] | 1.46[b]
73 | CC1CCC(=O)N1c1cccc(Nc2ncc(Cl)c(NCC(F)F)n2)c1 (stereo not drawn) [Example 160] | 1.81[b]
74 | CC1CC(=O)N(c2cccc(Nc3ncc(Cl)c(NCC(F)F)n3)c2)C1=O (stereo not drawn) [Example 161] | 1.68[b]
75 | O=C1OCCN1c1cccc(Nc2ncc(Br)c(NCC(F)F)n2)c1 [Example 162] | 1.71[b]
76 | CC1COC(=O)N1c1cccc(Nc2ncc(Br)c(NCC(F)F)n2)c1 (stereo not drawn) [Example 163] | 1.88[b]
77 | CC1(C)CC(=O)N(c2cccc(Nc3ncc(Br)c(NCC(F)F)n3)c2)C1=O [Example 164] | 2.08[b]
78 | CC1COC(=O)N1c1ccc(Nc2ncc(Br)c(NCC(F)F)n2)cc1 (stereo not drawn) [Example 165] | 1.78[b]
79 | O=C1COCCN1c1cccc(Nc2ncc(Br)c(NCC(F)F)n2)c1 [Example 166] | 1.51[b]
80 | CC1CCC(=O)N1c1cccc(Nc2ncc(Br)c(NCC(F)F)n2)c1 (stereo not drawn) [Example 167] | 1.91[b]
81 | CC1CC(=O)N(c2cccc(Nc3ncc(Br)c(NCC(F)F)n3)c2)C1=O (stereo not drawn) [Example 168] | 1.78[b]
82 | CC1(C)CC(=O)N(c2cccc(Nc3ncc(Cl)c(NCC(F)(F)F)n3)c2)C1=O [Example 170] | 2.36[b]
83 | CC1CC(C)N(c2cccc(Nc3ncc(Cl)c(NCC(F)(F)F)n3)c2)C1=O (stereo not drawn) [Example 171] | 2.51[b]
84 | CC1COC(=O)N1c1ccc(Nc2ncc(Cl)c(NCC(F)(F)F)n2)cc1 (stereo not drawn) [Example 172] | 2.06[b]
